This is an account of results in patent US20260265305A1, “POLYPEPTIDE DERIVATIVE FOR ORAL DELIVERY” (Hangzhou Sciwind Biosciences Co., Ltd., priority 2023, published 2026).

Several values for one entry are separate records, joined by “and”; a condition that tells them apart may be missing. Equal entries are not always repeated. Numbered stars: 1 amine (or outer) side, 2 acyl side, 3 side chain; on linkers, the order of the positions; unused ones are H or OH. Peptide text beside a SMILES is read from it. * marks the point of attachment. C20 diacid = O=C(O)CCCCCCCCCCCCCCCCCCC(=O)*; γGlu = O=C(O)[C@H](CCC(=O)[*:2])N[*:1]; AEEA = NCCOCCOCC(=O)O

For orientation: EC50 means the concentration needed to bring the measured effect to its halfway point.

A short description of data set [1]: Heat accelerated stability assay of polypeptide solutions (40° C., pH about 7.4), reversed phase chromatography. It is filed as physicochemical. The note with it: 40° C.; for Concentration change on 7 d / Concentration change on 26 d: pH about 7.4, 1 mg/mL; for Concentration change on 7 d / Purity change on 7 d: Day 7; for Concentration change on 26 d / Purity change on 26 d: Day 26; for Purity change on 7 d / Purity change on 26 d: reversed phase chromatography 214 nm; for Purity change on 7 d: purity on 7 d − purity on 0 d; for Purity change on 26 d: purity on 26 d − purity on 0 d. How it is done:
A stability test chamber (BINDER GmbH), a 0.01 mg-readability balance (METTLER TOLEDO), a pH meter (METTLER TOLEDO), a biosafety cabinet (ESCO), T2G-II small-sized motor-driven capping machine (Changsha zhongya pharmaceutical equipment co. LTD), a high-speed refrigerated centrifuge (Eppendorf), a sterilizer cabinet (Shinva Medical), Agilent 1260 high-performance liquid chromatographer, and Sepax Bio-C18 4.6*250 mm 3 μm 200 Å reversed phase column were used.
Reagents and consumables included: ultrapure water (18.2 MΩ, self-made), acetonitrile (HPLC grade), trifluoroacetic acid (HPLC grade), sodium dihydrogen phosphate (pharmaceutical grade, Hunan Jiudian Hongyang Pharmaceutical Co., Ltd), hydrochloric acid (pharmaceutical grade, Hunan Er-Kang Pharmaceutical Co., Ltd), sodium hydroxide (Analytical Reagent grade, Hushi®, Sinopharm Chemical Reagent Co., Ltd), vials, rubber stoppers, disposable syringes, and sterile filters.
The lyophilized powder (1 mg/mL) of the polypeptide derivative prepared in accordance with the method of Example 1 was mixed with sodium dihydrogen phosphate (1.42 mg/mL) and dissolved in ultrapure water in the indicated mass-volume ratios. After adjusting pH to about 7.4 with hydrochloric acid/sodium hydroxide, the solution was filtered into a sterilized vial in a clean bench using a 0.22 μm sterile filter. The vial was then capped and placed into the stability test chamber at 40° C. Detections were made on Days 7 (7d) and 26 (26d), and during the assay, changes in the characteristics and properties of the polypeptide were observed and recorded. The sample was then centrifuged for 3 min at 10,000 rpm at 4° C., and the supernatant was transferred to a liquid phase sample vial for detecting the concentration and purity of the polypeptides using liquid phase chromatography described as below, wherein the concentration of the polypeptide=peak area/injection volume/extinction coefficient/60×flow rate, and the purity of the polypeptide=target peak area/total peak area×100%.
Conditions of the reversed phase chromatography Flow rate: 1.0 ml/min; Autosampler temperature: 15° C.; Column temperature: 25° C.; Detection wavelengths: 280 nm and 214 nm; Mobile phase A: 100% H2O+0.05% TFA; Mobile phase B: 100% ACN; and Gradient of elution listed in Table 6: […]

Another data set has as its target T1, amylin receptor (hAMY3R) (Homo sapiens, UniProt O60896+P30988).
T1 construct: host or cells: CHO-K1/Ga15/AMY3 cells, further stably transfected with a CRE-luciferase plasmid
T1 sequence (P30988 25-474): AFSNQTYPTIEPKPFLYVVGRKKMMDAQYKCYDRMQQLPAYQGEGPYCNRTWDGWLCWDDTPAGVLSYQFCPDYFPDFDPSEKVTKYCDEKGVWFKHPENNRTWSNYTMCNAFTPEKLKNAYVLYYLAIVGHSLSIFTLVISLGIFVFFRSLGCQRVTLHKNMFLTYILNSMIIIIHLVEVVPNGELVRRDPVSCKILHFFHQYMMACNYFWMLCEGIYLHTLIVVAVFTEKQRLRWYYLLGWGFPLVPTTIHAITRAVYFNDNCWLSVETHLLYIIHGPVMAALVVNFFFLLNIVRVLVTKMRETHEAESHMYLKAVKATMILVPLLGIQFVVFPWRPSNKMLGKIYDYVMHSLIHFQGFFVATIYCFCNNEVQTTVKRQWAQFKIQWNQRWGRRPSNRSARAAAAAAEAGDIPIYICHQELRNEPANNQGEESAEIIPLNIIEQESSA
T1 sequence (O60896 24-148): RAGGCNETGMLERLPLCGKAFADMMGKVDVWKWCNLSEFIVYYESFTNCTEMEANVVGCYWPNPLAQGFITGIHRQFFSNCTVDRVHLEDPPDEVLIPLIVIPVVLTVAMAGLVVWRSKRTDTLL
As to the kind of experiment: Amylin receptor agonism testing, CRE-luciferase assay in stably transfected CHO-K1/Ga15/AMY3 cells. It is filed as cell-based. The conditions noted are these: incubation of 24 hours; Table 3; read-out: EC50, activity against the amylin receptor in cells.

For the compound `CC(C)C[C@H](NC(=O)[C@H](CCCNC(=N)N)NC(=O)CNC(=O)[C@H](CC(C)C)NC(=O)[C@@H](NC(=O)[C@H](C)NC(=O)[C@@H](NC(=O)[C@H](CO)NC(=O)[C@H](CC(C)C)NC(=O)[C@H](CCC(N)=O)NC(=O)[C@H](CO)NC(=O)[C@H](C)NC(=O)[C@H](CCC(=O)O)NC(=O)CCCCCCCCCCCCCCCCCCC(=O)O)[C@@H](C)O)C(C)C)C(=O)N[C@@H](CO)C(=O)N[C@@H](CC(=O)O)C(=O)N[C@@H](CCC(=O)O)C(=O)N[C@@H](CC(C)C)C(=O)N[C@@H](Cc1c[nH]cn1)C(=O)N[C@@H](CCCNC(=N)N)C(=O)N[C@@H](CC(C)C)C(=O)N[C@@H](CCC(N)=O)C(=O)N[C@@H](CC(=O)O)C(=O)N[C@@H](Cc1ccc(O)cc1)C(=O)N1CCC[C@H]1C(=O)N[C@@H](CCCNC(=N)N)C(=O)N[C@H](C(=O)N[C@@H](CC(=O)O)C(=O)N[C@H](C(=O)NCC(=O)N[C@@H](CO)C(=O)NCC(=O)N[C@@H](CO)C(=O)N1CCC[C@H]1C(N)=O)C(C)C)[C@@H](C)O` [M10] ({C20 diacid}-EASQLSTAVLGRLSDELHRLQDYPRTDVGSGSP-NH2), in data set [1], the “Concentration change on 7 d” value is −2.290%, the “Concentration change on 26 d” value was −10.562%, the “Purity change on 7 d” value is −1.66% and the “Purity change on 26 d” value is reported as −5.98%.
As to `CC(C)C[C@H](NC(=O)[C@H](CCCNC(=N)N)NC(=O)CNC(=O)[C@H](CC(C)C)NC(=O)[C@@H](NC(=O)[C@H](C)NC(=O)[C@@H](NC(=O)[C@H](CO)NC(=O)[C@H](CC(C)C)NC(=O)[C@H](CCC(N)=O)NC(=O)[C@H](CO)NC(=O)[C@H](C)NC(=O)COCCOCCNC(=O)COCCOCCNC(=O)COCCOCCNC(=O)COCCOCCNC(=O)COCCOCCNC(=O)COCCOCCNC(=O)COCCOCCNC(=O)COCCOCCNC(=O)CC[C@H](NC(=O)CCCCCCCCCCCCCCCCCCC(=O)O)C(=O)O)[C@@H](C)O)C(C)C)C(=O)N[C@@H](CO)C(=O)N[C@@H](CC(=O)O)C(=O)N[C@@H](CCC(=O)O)C(=O)N[C@@H](CC(C)C)C(=O)N[C@@H](Cc1c[nH]cn1)C(=O)N[C@@H](CCCNC(=N)N)C(=O)N[C@@H](CC(C)C)C(=O)N[C@@H](CCC(N)=O)C(=O)N[C@@H](CC(=O)O)C(=O)N[C@@H](Cc1ccc(O)cc1)C(=O)N1CCC[C@H]1C(=O)N[C@@H](CCCNC(=N)N)C(=O)N[C@H](C(=O)N[C@@H](CC(=O)O)C(=O)N[C@H](C(=O)NCC(=O)N[C@@H](CO)C(=O)NCC(=O)N[C@@H](CO)C(=O)N1CCC[C@H]1C(N)=O)C(C)C)[C@@H](C)O` [M21] ({C20 diacid-γGlu-AEEA-AEEA-AEEA-AEEA-AEEA-AEEA-AEEA-AEEA}-ASQLSTAVLGRLSDELHRLQDYPRTDVGSGSP-NH2), in data set [1], the “Concentration change on 7 d” value was −1.388%, the “Concentration change on 26 d” value is reported as −4.522%, the “Purity change on 7 d” value is −1.66% and the “Purity change on 26 d” value was −2.01%. The EC50 at amylin receptor (hAMY3R) came to 44 pM.
Turning to “D2: SEQ ID NO. 5 CSNLSTCVLGKLSQELHKLQTYPRTNTGSGTP-NH2, no modification, no fatty acid [reference compound]”, the “Concentration change on 7 d” value in data set [1] is −40% and −40.064%.
For “H-ASQLSTAVLGRLSQELHRLQDYPRTDVGSGSP-NH2 [M5]”, the EC50 at amylin receptor (hAMY3R) amounted to 33 pM.
For the compound “M19: SEQ ID NO. 4 ASQLSTAVLGRLSDELHRLQDYPRTDVGSGSP-NH2, N terminus, C20 diacid + γGlu + 4 AEEAs ({C20 diacid-γGlu-AEEA-AEEA-AEEA-AEEA}-ASQLSTAVLGRLSDELHRLQDYPRTDVGSGSP-NH2)”, in data set [1], the “Concentration change on 26 d” value is given as −1.589%, the “Purity change on 7 d” value was “No change” and the “Purity change on 26 d” value is reported as “nearly no noticeable change in purity”.
For “M20: SEQ ID NO. 4 ASQLSTAVLGRLSDELHRLQDYPRTDVGSGSP-NH2, N terminus, C20 diacid + γGlu + 6 AEEAs ({C20 diacid-γGlu-AEEA-AEEA-AEEA-AEEA-AEEA-AEEA}-ASQLSTAVLGRLSDELHRLQDYPRTDVGSGSP-NH2)”, in data set [1], the “Concentration change on 7 d” value is on record as “No change (concentration change of less than 1% (denoted as “no change”))”, the “Concentration change on 26 d” value was −3.662%, the “Purity change on 7 d” value was “No change” and the “Purity change on 26 d” value is on record as −1.59%.
